In US9433593B1, “Composition for anti-inflammation containing 5-adamantan-1-yl-N-(2,4-dihydroxy-benzyl)-2,4-dimethoxy-benzamide” (Amorepacific Corporation, priority 2015, dated 2016):

How the values were obtained:
RAW 264.7 cells = assay: Cytotoxicity by MTT method; assay type: cell-based
Experimental: (§1) RAW 264.7 cells (murine macrophage cell line) (ATCC, Rockville, Md., USA) and HEK 293 cells were cultured in RPMI 1640 medium supplemented with FBS (10% heat-inactivated fetal bovine serum; Gibco, Grand Island, N.Y., USA), glutamine and antibiotics (penicillin and streptomycin) at 37° C. under 5% CO2.
In all experiments, the cells were detached with a cell scraper. When the cells were cultured to a density of 2×10^6 cells/mL, the ratio of dead cells was 1% or lower (determined by the trypan blue dye exclusion method)
During subculturing, RAW 264.7 cells were plated on a well plate to a concentration of 1×10^6 cells/well. After culturing for 18 hours, the cells were treated with 5-adamantan-1-yl-N-(2,4-dihydroxybenzyl)-2,4-dimethoxybenzamide (denoted as ‘AP736’ in FIG. 1) at concentrations of 0-30 μM. Then, the cells were cultured in an incubator for 8 hours or 24 hours. Cytotoxicity was evaluated by the commonly used MTT method. 3 hours before the last culturing, 10 μL of an MTT (3-[4,5-dimethylthiazol-2-yl]-2,5-diphenyltetrazolium bromide) solution (10 mg/mL in phosphate-buffered saline, pH 7.4) was added to each well. After terminating reaction by adding 15% SDS (sodium dodecyl sulfate) to each well, the formed formazan crystals were dissolved. Then, absorbance was measured at 570 nm on a microplate reader.

[1] = system: PGE2 production in RAW 264.7 cells; assay: PGE2 production in LPS-treated cells (EIA kit); assay type: cell-based, murine; details: 0-30 μM for 30 minutes, then LPS (1 μg/mL) 6 hours, vs group treated only with LPS
Experimental: as §1
(§2) RAW 264.7 cells (1×10^6 cells/well) that had been preincubated for 18 hours were treated with 5-adamantan-1-yl-N-(2,4-dihydroxybenzyl)-2,4-dimethoxybenzamide (hereinafter, ‘AP736’) at concentrations of 0-30 μM for 30 minutes and then incubated for 6 hours or 24 hours with LPS (1 μg/mL). The supernatant was recovered after the incubation. The cells incubated for 6 hours were subjected to PGE2 analysis and those incubated for 24 hours were subjected to NO analysis. The NO concentration in the culture medium was measured by the Griess test (Promega, Madison, Wis., USA). And, the concentration of PGE2 released to the culture medium was measured using an EIA kit (Amersham, Little Chalfont, Buckinghamshire, UK).

AP-1 = AP-1 luciferase reporter gene assay; assay type: cell-based; details: HEK 293 cells, AP-1-Luc, MyD88 or TRIF cotransfected, 8 hours
Experimental: as §1
(§3) The activity of transcription factors can be tested by the luciferase reporter gene assay. It is known that the activity of NF-κB and AP-1 is induced by the TLR adapter protein. NF-κB and AP-1 are known to produce the inflammatory factors NO and PGE2.
(§4) HEK 293 cells (1×10^6 cells/well) were cotransfected with 1 μg of a plasmid containing NF-κB-Luc (luciferase) and AP-1-Luc constructs. The transfection was conducted on a 12-well plate by the PEI method. After 48 hours, the transformed cells were used for experiment. MyD88 or TRIF (1 μg/mL each), which are known as TLR adapter proteins, were cotransfected for 8 hours together with 5-adamantan-1-yl-N-(2,4-dihydroxybenzyl)-2,4-dimethoxybenzamide (5-adamantan-1-yl-N-(2,4-dihydroxybenzyl)-2,4-dimethoxybenzamide is denoted as ‘AP736’ in FIG. 5). The luciferase reporter gene assay was performed using the luciferase assay system (Promega, Madison, Wis.).

COX-2 = assay: LPS-induced COX-2 expression (RT-PCR); assay type: cell-based, murine; details: RAW 264.7 cells, pretreated at different concentrations, LPS 4 hours
Experimental: (§5) The expression level of iNOS, COX-2 and IL-1β which are known as inflammation-inducing factors was measured.
(§6) In order to investigate the effect of 5-adamantan-1-yl-N-(2,4-dihydroxybenzyl)-2,4-dimethoxybenzamide on inhibition of iNOS, COX-2 and IL-1β expression in RAW 264.7 cells, the cells were pretreated with 5-adamantan-1-yl-N-(2,4-dihydroxybenzyl)-2,4-dimethoxybenzamide at different concentrations and then RT-PCR was conducted after treating with LPS for 4 hours.

NF-κB = NF-κB luciferase reporter gene assay; assay type: cell-based; details: HEK 293 cells, NF-κB-Luc, MyD88 or TRIF cotransfected, 8 hours
Experimental: as §1, §3, §4

iNOS = assay: LPS-induced iNOS expression (RT-PCR); assay type: cell-based, murine; details: RAW 264.7 cells, pretreated at different concentrations, LPS 4 hours
Experimental: as §5, §6

IL-1β = assay: LPS-induced IL-1β expression (RT-PCR); assay type: cell-based, murine; details: RAW 264.7 cells, pretreated at different concentrations, LPS 4 hours
Experimental: as §5, §6

[2] = system: NO production in RAW 264.7 cells; assay: NO production in LPS-treated cells (Griess test); assay type: cell-based, murine; details: 0-30 μM for 30 minutes, then LPS (1 μg/mL) 24 hours, vs group treated only with LPS
Experimental: as §1, §2

## COc1cc(OC)c(C23CC4CC(CC(C4)C2)C3)cc1C(=O)NCc1ccc(O)cc1O [5-adamantan-1-yl-N-(2,4-dihydroxybenzyl)-2,4-dimethoxybenzamide]
RAW 264.7 cells; 10 μM, treated for 8 hours
  cell viability: 100%
RAW 264.7 cells; 10 μM, treated for 24 hours
  cell viability: 100%
RAW 264.7 cells; 20 μM, treated for 8 hours
  cell viability: 100%
RAW 264.7 cells; 20 μM, treated for 24 hours
  cell viability: 100%
RAW 264.7 cells; 30 μM, cultured for 24 hours
  cell viability: ~80%
[1]
  concentration of PGE2: decreased as compared to the group treated only with LPS with increasing concentration
AP-1
  activity of AP-1: decreased activity
COX-2
  expression of the mRNAs and proteins of COX-2 induced by LPS: distinctly inhibited
NF-κB
  activity of NF-κB: decreased activity
iNOS
  expression of the mRNAs and proteins of iNOS induced by LPS: distinctly inhibited
IL-1β
  expression of the mRNAs and proteins of IL-1β induced by LPS: distinctly inhibited
[2]
  NO production: statistically significant decrease in NO production with increasing concentration
